The nature of data set [1]: Ames test. From the text:
(§1) Royal Gist-Brocades N.V. (Netherlands) was asked to perform tests for acute oral toxicity and dermal irritation, and Ames tests of phytosphingosine and derivatives thereof.
On the technique in general: In the Ames test, an excess of revertant colonies over the control signals mutagenicity.

Data set [2] has as its system human breast cancer cells. In words: Apoptosis test with or without radiation. In kind it is cell-based. The conditions noted are these: 5 μg/ml in combination with radiation, FIG. 17. As to the method: (§2) (1) Each 5 ml of 20 μg/ml of phytosphingosine and derivatives thereof were added to human lung cancer cell-containing dishes. Some cells were cultured without radiation and others were cultured with radiation with dose of 4 Gy. This apoptosis test was carried out in the same manner in the Experiment 1. Specimens used in this apoptosis test are as follows:
(§3) Control (Cont), IR, PS, PS+IR, C4PS, C4PS+IR, C6PS, C6PS+IR, C8PS, C8PS+IR, C12PS, C12PS+IR.
(§4) (2) Apoptosis tests for human blood cancer cells, uterine cervical cancer cells, and breast cancer cells were carried out in the same manner as in the above (1) except using 5 μg/ml of phytosphingosine and derivatives thereof.

Data set [3] deals with human uterine cervical cancer cells. In words: Apoptosis test with or without radiation. In kind it is cell-based. The conditions noted are these: 5 μg/ml in combination with radiation, FIG. 17. As for the experimental part:
as §2, §3, §4

Data set [4] relates to human blood cancer cells. Description: Apoptosis test with or without radiation. The conditions noted are these: 5 μg/ml in combination with radiation. In kind it is cell-based. As to the method: as §2, §3, §4
Data set [5] can be described thus: Acute oral toxicity test. The conditions noted are these: rat, in vivo, rats. As for the experimental part: as §1
In the acute oral toxicity test, the LD50 (the […]) value amounted to 2,000 mg/kg or more in rats.

Data set [6] has as its system blood cancer cells (Jurkat). In words: Apoptosis test (Sub G1, propidium iodide, flow cytometry). The format is cell-based, human. As for the experimental part: Cancer cells as used in the experiment were human lung cancer cells (NCI-H460, Korean Cell Line Bank), human breast cancer cells (MDA-MB-231, American Type Culture Collection (ATCC)), human uterine cervical cancer cells (HeLa, Korean Cell Line Bank), and blood cancer cells (Jurkat, ATCC). These cancer cells were cultured in RPMI 1640 media containing 10% FBS, penicillin, and streptomycin (GIBCO BRL). The apoptosis tests were carried out at human lung cancer cells, breast cancer cells, uterine cervical cancer cells, and blood cancer cells as follows: Phytosphingosine or a derivative thereof was dissolved in DMSO. Samples of the resultant solution of different concentration levels (1, 2, 5, 10, 15, 20 μg/ml) were prepared. According to the following treatment schedule, phytosphingosine treated cancer cells were cultured, washed with PBS (phosphate buffered saline), and fixed with 70% ethanol. The fixed cells were again washed with PBS, suspended in PBS, and 1 mg/ml of RNase was added thereto. Then, DNA was stained with 50 μg/ml of propidium iodide fluorescent dye and the change in the Sub G1 was analyzed by flow cytometry (Becton DICKINSON). The Sub G1, a marker of apoptotic cell death, means DNA distribution lower than that in the G1 phase of cell cycle. (1-1) In order to determine an anticancer effect of phytosphingosine, 5 ml of 10 μg/ml of phytosphingosine was added to respective dishes containing lung cancer cells, breast cancer cells, uterine cervical cancer cells, and blood cancer cells. (1-2) In order to examine a correlation of an anticancer effect with the phytosphingosine concentration and post-treatment culture time, each 5 ml of 2, 5, 10, and 15 μg/ml of phytosphingosine was added to respective human uterine cervical cancer cell-containing dishes and human breast cancer cell-containing dishes. In addition, each 5 ml of 5, 10, 15, and 20 μg/ml of phytosphingosine was added to respective human lung cancer cell-containing dishes, and each 5 ml of 1, 5, 10, and 20 μg/ml of phytosphingosine was added to respective human blood cancer cell-containing dishes.
On the technique in general: Flow cytometry measures light scatter and fluorescence of single cells or particles in a stream.

For data set [7], the system named is human lung cancer cells (NCI-H460). The description is as above. In kind it is cell-based. As to the method: Cancer cells as used in the experiment were human lung cancer cells (NCI-H460, Korean Cell Line Bank), human breast cancer cells (MDA-MB-231, American Type Culture Collection (ATCC)), human uterine cervical cancer cells (HeLa, Korean Cell Line Bank), and blood cancer cells (Jurkat, ATCC). These cancer cells were cultured in RPMI 1640 media containing 10% FBS, penicillin, and streptomycin (GIBCO BRL).
The apoptosis tests were carried out at human lung cancer cells, breast cancer cells, uterine cervical cancer cells, and blood cancer cells as follows:
Phytosphingosine or a derivative thereof was dissolved in DMSO. Samples of the resultant solution of different concentration levels (1, 2, 5, 10, 15, 20 μg/ml) were prepared. According to the following treatment schedule, phytosphingosine treated cancer cells were cultured, washed with PBS (phosphate buffered saline), and fixed with 70% ethanol. The fixed cells were again washed with PBS, suspended in PBS, and 1 mg/ml of RNase was added thereto. Then, DNA was stained with 50 μg/ml of propidium iodide fluorescent dye and the change in the Sub G1 was analyzed by flow cytometry (Becton DICKINSON). The Sub G1, a marker of apoptotic cell death, means DNA distribution lower than that in the G1 phase of cell cycle.
(1-1) In order to determine an anticancer effect of phytosphingosine, 5 ml of 10 μg/ml of phytosphingosine was added to respective dishes containing lung cancer cells, breast cancer cells, uterine cervical cancer cells, and blood cancer cells.
(1-2) In order to examine a correlation of an anticancer effect with the phytosphingosine concentration and post-treatment culture time, each 5 ml of 2, 5, 10, and 15 μg/ml of phytosphingosine was added to respective human uterine cervical cancer cell-containing dishes and human breast cancer cell-containing dishes. In addition, each 5 ml of 5, 10, 15, and 20 μg/ml of phytosphingosine was added to respective human lung cancer cell-containing dishes, and each 5 ml of 1, 5, 10, and 20 μg/ml of phytosphingosine was added to respective human blood cancer cell-containing dishes.
(1-3) An anticancer effect of phytosphingosine derivatives was determined in the same manner as mentioned in (1-1) and (1-2) except using 5 μg/ml of C4PS, C6PS, C8PS, and C12PS.

A short description of data set [8]: Dermal irritation test. In kind it is in vivo. The conditions noted are these: rabbits.
Excerpt: as §1

[9] abbreviates: 10 μg/ml phytosphingosine, test (1-1), FIG. 1.

One compound from patent publication US20090176888A1, “COMPOSITION COMPRISING PHYTOSPHINGOSINE OR DERIVATIVE THEREOF” (KOREA INSTITUTE OF RADIOLOGICAL & MEDICAL SCIENCES, priority 2003, published 2009) can be followed below.

A value given as a limit tells only on which side of the number the result lay.

As a reminder, the LD50 is the dose expected to kill half of the subjects tested. Consider `CCCCCCCCCCCCCC[C@@H](O)[C@@H](O)[C@@H](N)CO` [phytosphingosine], for which the “mutagenicity (Ames test)” value in data set [1] is on record as “do not cause mutation”. Also, the “enhancement of radiosensitizing effect” value in data set [2] and in data set [3] was “excellent” in each case. Moreover, the “increase of apoptotic rate, concurrent treatment vs PS or radiation alone” value in data set [4] (FIG. 15) was no less than 20%; in data set [4] (after 18 hours, FIG. 16), no less than 15%. The compound also had a 50% lethal dose (LD50) in data set [5] of no less than 2000 mg/kg. Moreover, the apoptosis in data set [6] (5 μg/ml or more, culture of 6 hours or more, FIG. 6) is on record as no less than 50%; in data set [6] (5 μg/ml, at 3-6 hours after treatment), no less than 50%; in data set [6] (10 μg/ml or more, culture of 3 hours or more, FIG. 6), no less than 50%; in data set [7] (10 μg/ml or more, culture of 6 hours or more, FIG. 5), 50%; in data set [7] (10 μg/ml, at 3-6 hours after treatment), no less than 50%. Also, the apoptotic rate in data set [6] (setting [9]) and in data set [7] (setting [9]) was no less than 50% throughout. Also, the dermal irritation result in data set [8] is “did not cause dermal damages”.
